Source: BindingDB's records for patent US8507533 (Pfizer, 2013)
“And” between values parts separate entries of the source, which are not always exact repeats. Equal values may be shown once.

Target: Glucagon receptor (Homo sapiens, UniProt P47871)
Assay: Glucagon SPA Assay
Settings: pH 7.4
From the text: The Glucagon SPA assay is used to determine the ability of test compounds to block the binding of glucagon-cex to the glucagon receptors.

Glucagon receptor, sequence (P47871 whole entry): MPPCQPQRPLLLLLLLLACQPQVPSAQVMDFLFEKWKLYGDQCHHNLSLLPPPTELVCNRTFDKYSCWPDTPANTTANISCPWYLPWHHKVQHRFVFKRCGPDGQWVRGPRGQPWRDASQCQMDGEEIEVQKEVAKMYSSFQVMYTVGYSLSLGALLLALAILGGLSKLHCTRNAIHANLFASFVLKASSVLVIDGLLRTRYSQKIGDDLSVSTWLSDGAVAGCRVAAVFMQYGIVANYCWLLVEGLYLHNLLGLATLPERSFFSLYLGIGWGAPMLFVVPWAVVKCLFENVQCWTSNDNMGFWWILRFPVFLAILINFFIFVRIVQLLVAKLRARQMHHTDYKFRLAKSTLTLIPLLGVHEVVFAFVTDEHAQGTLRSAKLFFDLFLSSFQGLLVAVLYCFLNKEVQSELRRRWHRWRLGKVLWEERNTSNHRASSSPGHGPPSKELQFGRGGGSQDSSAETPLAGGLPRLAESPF

Row | SMILES | Ki
1 | Cc1cc(-n2cc(C(F)(F)F)cn2)ccc1C(Nc1ccc(C(=O)NCCC(=O)O)cn1)C1CCCCC1 (single isomer, unassigned) [US8507533, 337] | 183 nM and 297 nM
2 | CCCC(Oc1ccc(-n2cc(-c3ccccc3)cn2)nc1)c1ccc(C(=O)NCCC(=O)O)cc1 (configuration not stated) [US8507533, 133] | 58 nM
